Measurements taken from patent US20220296595A1, “CDK INHIBITORS” (QILU REGOR THERAPEUTICS INC., priority 2019, published 2022).
Like-named read-outs stand apart in the source and are kept apart here.

Key:
CDK4/CyclinD1 = target: T1, CDK4/CyclinD1 (Homo sapiens, UniProt P11802); assay: Assay for inhibition of CDK4/CyclinD1 (Caliper microfluidic kinase assay); type: biochemical
T1 construct: purchased Thermofisher PR8064A
Experimental: The CDK4 enzyme assay for IC50 determination was performed as follows. Microfluidic kinase detection technology (Caliper) was used to monitor the phosphorylation of peptide substrate by CDK4/CyclinD1. The total reaction volume was 15 μL containing buffer A (100 mM HEPES (pH 7.5), 0.1% BSA, 0.01% Triton X-100, 1 mM DTT, 10 mM MgCl2, 10 μM Sodium Orthovanadate, 10 μM Beta-Glycerophosphate), 200 μM ATP, 1 nM CDK4/CyclinD1 (Thermofisher, PR8064A), 1 μM FL-34 (5-FAM-[…]), and the test compound at appropriate dilutions in DMSO. All components were added to the 384-well plate (Corning, 4514), and incubated at Room Temperature for 3 hours. The reaction was terminated by addition of 15 μL Stop Buffer (180 mM HEPES (pH 7.5), 20 mM EDTA, Coating-3 reagent (PerkinElmer, 760050)). The plate was then loaded on Caliper EZ Reader (EZ Reader II, PerkinElmer, HD-4HYSG2772), and the reaction mixtures including substrate and product were sipped into the microfluidic chip for separation and detection. The IC50 values of the test compound were determined by fitting the inhibition curves by 4 parameter sigmoidal dose-response model using the Xlfit5/GraphPad Prism 5 software.

CDK2/CyclinE1 = target: T2, CDK2/CyclinE1 (Homo sapiens, UniProt P24941); assay: Assay for inhibition of CDK2/CyclinE1 (Caliper microfluidic kinase assay); type: biochemical; details: read-out: CDK2 IC50
T2 construct: purchased SignalChem C29-18G
Experimental: The CDK2 enzyme assay for IC50 determination was performed as follows. Microfluidic kinase detection technology (Caliper) was used to monitor the phosphorylation of peptide substrate by CDK2/CyclinE1. The total reaction volume was 15 μL containing buffer A (100 mM HEPES (pH 7.5), 0.1% BSA, 0.01% Triton X-100, 1 mM DTT, 10 mM MgCl2, 10 μM Sodium Orthovanadate, 10 μM Beta-Glycerophosphate), 100 μM ATP, 5 nM CDK2/CyclinE1 (SignalChem, C29-18G), 5 μM FL-18 (5-FAM-QSPKKG-NH2), and the test compound at appropriate dilutions in DMSO. All components were added to the 384-well plate (Corning, 4514), and incubate at Room Temperature for 3 hours. The reaction was terminated by addition of 15 μL Stop Buffer (180 mM HEPES (pH 7.5), 20 mM EDTA, Coating-3 reagent (PerkinElmer, 760050)). The plate was loaded on Caliper EZ Reader (EZ Reader II, PerkinElmer, HD-4HYSG2772), and the reaction mixtures including substrate and product were sipped into the microfluidic chip for separation and detection. The IC50 values of the test compound were determined by fitting the inhibition curves by 4 parameter sigmoidal dose-response model using the Xlfit5/GraphPad Prism 5 software.

T47D breast cancer cells = assay: Anti-proliferation assay in T47D cell (Cyquant, day 6); type: cell-based, human; details: anti-proliferation, T47D cells, read-out: T47D IC50
Excerpt: T47D is a human breast cancer cell line commonly used in biomedical research involving the hormonal expression of cancer cells. T47D cells are distinct from other human breast cancer cells in that their progesterone receptors (PR) are not regulated by estradiol, a hormone that is abundant within the cells themselves. T47D cells have been employed in studies of the effects of progesterone on breast cancer and the corresponding transcriptional regulation caused by introduced drugs. The cells have been noted to be extremely resistant to estrogens and antiestrogens.
T47D breast cancer cells from American Type Culture Collection (ATCC, HTB-133) were plated at 3000 cells/well in 96-well plates, and were incubated in RPMI 1640 medium (Gibco, 31800105) with 10% Fetal Bovine Serum (FBS, Biowest, FB-1058) at 37° C., 5% CO2. After overnight incubation, baseline values were measured of the samples from one plate using Cyquant reagent (Invitrogen, C35011) following manufacturer's recommendations. Cells were incubated with the detection reagent for 1 hour at 37° C., and then the fluorescence was measured with excitation at 485 nm and emission at 535 nm using Spectra Max M5 (Molecular Devices, HD-4HYSG3196). Other plates were dosed with compounds at a ten-point dose concentration from 10 μM to 0.51 nM in a 3-fold dilution scheme. On day 6 after compound addition, Cyquant reagent was added and the fluorescence was measured using Spectra Max M5. The IC50 values of the test compound's anti-proliferation activity were determined from the baseline subtracted viability readout curve using Xlfit5/GraphPad Prism 5 software.

T1 sequence (P11802 whole entry): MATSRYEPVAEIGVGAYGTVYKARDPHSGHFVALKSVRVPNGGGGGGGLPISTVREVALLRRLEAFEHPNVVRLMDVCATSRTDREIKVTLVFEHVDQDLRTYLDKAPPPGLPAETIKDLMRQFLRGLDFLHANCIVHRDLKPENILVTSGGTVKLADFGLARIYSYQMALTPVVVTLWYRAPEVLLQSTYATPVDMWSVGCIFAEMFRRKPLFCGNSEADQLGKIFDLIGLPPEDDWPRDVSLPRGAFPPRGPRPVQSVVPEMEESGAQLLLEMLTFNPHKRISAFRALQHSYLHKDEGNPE
T1 sequence (P24385 whole entry partner): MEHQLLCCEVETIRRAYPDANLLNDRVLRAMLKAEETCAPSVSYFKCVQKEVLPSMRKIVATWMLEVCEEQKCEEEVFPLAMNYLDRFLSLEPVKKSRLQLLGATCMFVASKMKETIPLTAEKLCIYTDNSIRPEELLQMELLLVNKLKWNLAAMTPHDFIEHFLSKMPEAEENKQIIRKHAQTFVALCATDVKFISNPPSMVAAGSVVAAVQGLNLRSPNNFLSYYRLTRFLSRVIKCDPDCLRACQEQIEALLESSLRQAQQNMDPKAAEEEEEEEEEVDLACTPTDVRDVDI

SMILES | IC50 (CDK4/CyclinD1; CDK4/CyclinD1, 200 μM ATP) [nM] | IC50 (CDK2/CyclinE1; CDK2/CyclinE1, 100 μM ATP) [nM] | IC50 (T47D breast cancer cells) [nM] | IC50 (T47D breast cancer cells; Homo sapiens, T47D) [nM] | IC50 (CDK4/CyclinD1; CDK4/CyclinD1) [nM] | IC50 (CDK2/CyclinE1; CDK2/CyclinE1) [nM]
CNC1CCN(c2ccc(Nc3nccc(-c4ccn5ncc(C(C)C)c5c4)n3)nc2)C(=O)C1 (single isomer, unassigned) [Synthetic Example 206, 1-[6-[[4-(3-isopropylpyrazolo[1,5-a]pyridin-5-yl)pyrimidin-2-yl]amino]-3-pyridyl]-4-(methylamino)piperidin-2-one] | < 10 | < 10 | < 100 | – | – | –
Cc1nc2c(F)nc(-c3ccnc(Nc4ccc(N5CCCC(N(C)C)C5=O)cn4)n3)cc2n1C(C)C (single isomer, unassigned) [Synthetic Example 302, 3-(dimethylamino)-1-[6-[[4-(4-fluoro-1-isopropyl-2-methyl-imidazo[4,5-c]pyridin-6-yl)pyrimidin-2-yl]amino]-3-pyridyl]piperidin-2-one] | < 10 | > 1000 | – | < 100 | – | –
Cc1nc2c(F)nc(-c3ccnc(Nc4ccc(N5CCCC(N(C)C)C5=O)cn4)n3)cc2n1C(C)C (single isomer, unassigned) [Synthetic Example 303, 3-(dimethylamino)-1-[6-[[4-(4-fluoro-1-isopropyl-2-methyl-imidazo[4,5-c]pyridin-6-yl)pyrimidin-2-yl]amino]-3-pyridyl]piperidin-2-one] | < 10 | > 1000 | < 100 | – | – | –
CC(C)c1cnn2ccc(-c3nc(Nc4ccc(N5CCN(C6CC6)CCC5=O)cn4)ncc3F)cc12 [Synthetic Example 49] | < 10 | 100 to 1000 | – | 100 to 500 | – | –
CC(C)c1cnn2ccc(-c3nc(Nc4ccc(S(C)(=O)=O)cc4)ncc3F)cc12 [compound 6] | 100 to 1000 | 10 to 100 | – | 500 to 1000 | – | –
O=C1COCCN1c1ccc(Nc2ncc(F)c(-c3ccn4ncc(C5CCCC5)c4c3)n2)nc1 [compound 12] | 10 to 100 | 100 to 1000 | – | 500 to 1000 | – | –
CCN1CC(=O)N(c2ccc(Nc3ncc(F)c(-c4ccn5ncc(C(C)C)c5c4)n3)nc2)CC1=O [compound 14] | 10 to 100 | 10 to 100 | – | < 100 | – | –
CC(C)c1cnn2ccc(-c3ccnc(Nc4ccc(C(=O)N5CCC(NC6CC6)C5)cc4)n3)cc12 (stereo not shown) [compound 21] | < 10 | < 10 | < 100 | – | – | –
CC(C)c1cnn2ccc(-c3nc(Nc4ccc(N5CCN(CCF)CCC5=O)cn4)ncc3F)cc12 [compound 54] | < 10 | 10 to 100 | – | 100 to 500 | – | –
CC(C)n1cnc2c(OC(F)F)nc(-c3ccnc(Nc4ccc(N5CCC(N(C)C)CC5=O)cn4)n3)cc21 (stereo not shown) [compound 64] | – | – | – | 100 to 500 | < 10 | > 1000
CCN1CCC(Cn2ccc(Nc3nccc(-c4cc5c(ncn5C(C)C)c(OC)n4)n3)n2)CC1 [compound 135] | 10 to 100 | > 1000 | – | 100 to 500 | – | –
CC(C)c1cnn2ccc(-c3ccnc(Nc4ccc(N5CCC(N(C)C)C5=O)cc4)n3)cc12 (stereo not shown) [compound 144] | < 10 | < 10 | – | < 100 | – | –
CC(C)c1cnn2ccc(-c3ccnc(Nc4ccc(N5CCC(N(C)CCF)CC5=O)cn4)n3)cc12 (stereo not shown) [compound 170] | < 10 | 10 to 100 | – | < 100 | – | –
CC(C)c1cnn2ccc(-c3ccnc(Nc4ccc(N5CCCC(N(C)C)C5=O)cc4)n3)cc12 (stereo not shown) [compound 174] | < 10 | 100 to 1000 | – | 100 to 500 | – | –
Cc1nn2ccc(-c3ccnc(Nc4ccc(N5CCCC(N(C)C)C5=O)cc4)n3)cc2c1C(C)C (stereo not shown) [compound 178] | < 10 | 100 to 1000 | – | < 100 | – | –
CNC1CCCN(c2ccc(Nc3nccc(-c4ccn5ncc(C(C)C)c5c4)n3)cn2)C1=O (stereo not shown) [compound 185] | < 10 | 10 to 100 | – | < 100 | – | –
CC(C)c1cnn2ccc(-c3ccnc(Nc4ccc(N5CCC(NCCF)CC5=O)cn4)n3)cc12 (stereo not shown) [compound 201] | < 10 | < 10 | – | < 100 | – | –
CNC1CCCN(c2ccc(Nc3nccc(-c4ccn5ncc(C(C)C)c5c4)n3)nc2)C1=O (stereo not shown) [compound 208] | < 10 | 100 to 1000 | – | < 100 | – | –
CC(C)c1cnn2ccc(-c3ccnc(Nc4ccc(N5C(=O)C6CC5CN6)cn4)n3)cc12 (stereo not shown) [compound 210] | < 10 | 10 to 100 | – | > 1000 | – | –
CC(C)(C)c1cnn2ccc(-c3ccnc(Nc4ccc(N5C(=O)C6CC5CN6)cn4)n3)cc12 (stereo not shown) [compound 211] | < 10 | < 10 | – | 500 to 1000 | – | –
Cc1nn2ccc(-c3ccnc(Nc4ccc(N5CCCC(N)C5=O)cc4)n3)cc2c1C(C)C (stereo not shown) [compound 216] | < 10 | 10 to 100 | – | < 100 | – | –
CC1(N)CCN(c2ccc(Nc3nccc(-c4ccn5ncc(C(C)(C)C)c5c4)n3)nc2)C(=O)C1 (stereo not shown) [compound 219] | < 10 | < 10 | – | < 100 | – | –
CC(C)(C)c1cnn2ccc(-c3ccnc(Nc4ccc(N5CCCC(N)C5=O)cn4)n3)cc12 (stereo not shown) [compound 220] | < 10 | 10 to 100 | – | < 100 | – | –
CNC1CCCN(c2ccc(Nc3nccc(-c4ccn5ncc(C(C)(C)C)c5c4)n3)nc2)C1=O (stereo not shown) [compound 221] | < 10 | > 1000 | – | < 100 | – | –
CC(C)n1cnc2c1CN(c1nc(Nc3ccc(N4CCNCC4=O)cn3)ncc1F)CC2 [compound 238] | < 10 | 10 to 100 | – | 100 to 500 | – | –
CC(C)n1cnc2c1CN(c1nc(Nc3ccc(N4CCOCC4=O)cn3)ncc1F)CC2 [compound 239] | < 10 | 10 to 100 | – | 100 to 500 | – | –
CC(C)n1cnc2c(F)nc(-c3ccnc(Nc4ccc(N5CCC(N(C)C)CC5=O)cc4F)n3)cc21 (stereo not shown) [compound 305] | < 10 | < 10 | – | – | – | –
CC(C)n1cnc2c(F)nc(-c3ccnc(NC4CCN(S(C)(=O)=O)CC4)n3)cc21 [compound 310] | 10 to 100 | 10 to 100 | – | – | – | –
